Literature values in PMC8781256, “The Influence of Fed State Lipolysis Inhibition on the Intraluminal Behaviour and Absorption of Fenofibrate from a Lipid-Based Formulation” (Pharmaceutics, 2022).

Assays:
[1] = test system: human gastric lipase (HGL); design: method as in PMID 11408251; details: after intake of solid and liquid meals
[2] = test system: human pancreatic lipase (HPL); design: method as in PMID 11408251; details: after intake of solid and liquid meals
[3] = design: method as in PMID 8626884; details: acts locally in the GI tract

Row | log P | Structure (SMILES) | HGL enzyme inhibition [1] | HPL enzyme inhibition [2] | systemic uptake [3]
1 | 5.21 | CC(C)OC(=O)C(C)(C)Oc1ccc(C(=O)c2ccc(Cl)cc2)cc1 [fenofibrate] | – | – | –
2 | – | CCCCCCCCCCC[C@@H](C[C@@H]1OC(=O)[C@H]1CCCCCC)OC(=O)[C@H](CC(C)C)NC=O [orlistat, tetrahydrolipstatin] | 46.6–91.4% | 51.2–82.6% | negligible
